# Results: PMC9950205, “Efficacy, safety, and pharmacokinetics of teduglutide in adult Japanese patients with short bowel syndrome and intestinal failure: two phase III studies with an extension” (Surgery Today, 2022)
# Test system: adult Japanese patients with SBS-IF
# Assay: Safety: treatment-emergent adverse events (TEAEs, TESAEs)
# Format: in vivo
# From the text: Safety analyses included the monitoring of adverse events (AEs), body weight, BMI, vital signs, 12-lead electrocardiogram (ECG), serum biochemistry, hematology, and presence of antibodies to teduglutide. AEs were coded using the Medical Dictionary for Regulatory Activities versions 17.1 (TED-C14-004) and 21.0 (SHP633-306 and SHP633-307). Specifically, AEs were treatment-emergent AEs (TEAEs), defined as any unfavorable and unintended sign (including any abnormal laboratory finding), symptom, or disease that occurred during treatment with teduglutide, whether or not the event was considered to be related to the study drug by the clinical study investigator. AEs were also categorized as mild, moderate, or severe. […] AEs were considered related to treatment with teduglutide, or its administration, based on the investigator's medical judgment.
# [1] = > 24 weeks (SHP633-307 and TED-C14-004), 0.05 mg/kg/day
compound,measurement,setting,value
CC[C@H](C)[C@H](NC(=O)[C@H](Cc1ccccc1)NC(=O)[C@H](CC(=O)O)NC(=O)[C@H](CCCNC(=N)N)NC(=O)[C@H](C)NC(=O)[C@H](C)NC(=O)[C@H](CC(C)C)NC(=O)[C@H](CC(N)=O)NC(=O)[C@H](CC(=O)O)NC(=O)[C@H](CC(C)C)NC(=O)[C@@H](NC(=O)[C@@H](NC(=O)[C@H](CC(N)=O)NC(=O)[C@H](CCSC)NC(=O)[C@H](CCC(=O)O)NC(=O)[C@H](CC(=O)O)NC(=O)[C@H](CO)NC(=O)[C@H](Cc1ccccc1)NC(=O)[C@H](CO)NC(=O)CNC(=O)[C@H](CC(=O)O)NC(=O)CNC(=O)[C@@H](N)Cc1c[nH]cn1)[C@@H](C)O)[C@@H](C)CC)C(=O)N[C@@H](CC(N)=O)C(=O)N[C@@H](Cc1c[nH]c2ccccc12)C(=O)N[C@@H](CC(C)C)C(=O)N[C@H](C(=O)N[C@@H](CCC(N)=O)C(=O)N[C@H](C(=O)N[C@@H](CCCCN)C(=O)N[C@H](C(=O)N[C@H](C(=O)N[C@@H](CC(=O)O)C(=O)O)[C@@H](C)O)[C@@H](C)CC)[C@@H](C)O)[C@@H](C)CC [teduglutide],Abdominal distension: Events,[1],2 n
same,Abdominal distension: Patients,[1],2 (13.3) n (%)
same,Abdominal pain: Events,[1],1 n
same,Abdominal pain: Patients,[1],1 (6.7) n (%)
same,Anal abscess: Events,[1],3 n
same,Anal abscess: Patients,[1],3 (20.0) n (%)
same,Anemia: Events,[1],0 n
same,Anemia: Patients,[1],0 n (%)
same,Any TEAE: Events,[1],199 n
same,Any TEAE: Patients,[1],11 (73.3) n (%)
same,Arthralgia: Events,[1],5 n
same,Arthralgia: Patients,[1],5 (33.3) n (%)
same,Back pain: Events,[1],1 n
same,Back pain: Patients,[1],1 (6.7) n (%)
same,Blood and lymphatic system disorders: Events,[1],0 n
same,Blood and lymphatic system disorders: Patients,[1],0 n (%)
same,Catheter site infection: Events,[1],1 n
same,Catheter site infection: Patients,[1],1 (6.7) n (%)
same,Catheter site pain: Events,[1],4 n
same,Catheter site pain: Patients,[1],2 (13.3) n (%)
same,Dehydration: Events,[1],2 n
same,Dehydration: Patients,[1],2 (13.3) n (%)
same,Dermatitis contact: Events,[1],4 n
same,Dermatitis contact: Patients,[1],4 (26.7) n (%)
same,Device occlusion (central venous catheter for PS): Events,[1],3 n
same,Device occlusion (central venous catheter for PS): Patients,[1],2 (13.3) n (%)
same,Device-related infection (central venous catheter for PS): Events,[1],24 n
same,Device-related infection (central venous catheter for PS): Patients,[1],7 (46.7) n (%)
same,Diarrhea: Events,[1],4 n
same,Diarrhea: Patients,[1],3 (20.0) n (%)
same,Dry skin: Events,[1],1 n
same,Dry skin: Patients,[1],1 (6.7) n (%)
same,Enteritis: Events,[1],1 n
same,Enteritis: Patients,[1],1 (6.7) n (%)
same,Enterocolitis: Events,[1],2 n
same,Enterocolitis: Patients,[1],2 (13.3) n (%)
same,Eye disorder: Events,[1],5 n
same,Eye disorder: Patients,[1],1 (6.7) n (%)
same,Gastrointestinal disorders: Events,[1],33 n
same,Gastrointestinal disorders: Patients,[1],8 (53.3) n (%)
same,General disorders and administration site conditions: Events,[1],16 n
same,General disorders and administration site conditions: Patients,[1],5 (33.3) n (%)
same,Headache: Events,[1],11 n
same,Headache: Patients,[1],5 (33.3) n (%)
same,Hematuria: Events,[1],2 n
same,Hematuria: Patients,[1],2 (13.3) n (%)
same,Hemorrhage subcutaneous: Events,[1],2 n
same,Hemorrhage subcutaneous: Patients,[1],2 (13.3) n (%)
same,Hepatobiliary disorders: Events,[1],2 n
same,Hepatobiliary disorders: Patients,[1],2 (13.3) n (%)
same,Hypersensitivity: Events,[1],2 n
same,Hypersensitivity: Patients,[1],2 (13.3) n (%)
same,Hypozincemia: Events,[1],1 n
same,Hypozincemia: Patients,[1],1 (6.7) n (%)
same,Immune system disorders: Events,[1],2 n
same,Immune system disorders: Patients,[1],2 (13.3) n (%)
same,Infections and infestations: Events,[1],62 n
same,Infections and infestations: Patients,[1],10 (66.7) n (%)
same,Influenza: Events,[1],18 n
same,Influenza: Patients,[1],5 (33.3) n (%)
same,Injection site reaction: Events,[1],0 n
same,Injection site reaction: Patients,[1],0 n (%)
same,"Injury, poisoning, and procedural complications: Events",[1],1 n
same,"Injury, poisoning, and procedural complications: Patients",[1],1 (6.7) n (%)
same,Insomnia: Events,[1],2 n
same,Insomnia: Patients,[1],2 (13.3) n (%)
same,Investigations: Events,[1],5 n
same,Investigations: Patients,[1],2 (13.3) n (%)
same,Metabolism and nutrition disorders: Events,[1],7 n
same,Metabolism and nutrition disorders: Patients,[1],5 (33.3) n (%)
same,Musculoskeletal and connective tissue disorders: Events,[1],10 n
same,Musculoskeletal and connective tissue disorders: Patients,[1],6 (40.0) n (%)
same,Nasopharyngitis: Events,[1],18 n
same,Nasopharyngitis: Patients,[1],5 (33.3) n (%)
same,Nausea: Events,[1],7 n
same,Nausea: Patients,[1],3 (20.0) n (%)
same,Nervous system disorders: Events,[1],19 n
same,Nervous system disorders: Patients,[1],7 (46.7) n (%)
same,Oropharyngeal pain: Events,[1],3 n
same,Oropharyngeal pain: Patients,[1],3 (20.0) n (%)
same,Pruritus: Events,[1],1 n
same,Pruritus: Patients,[1],1 (6.7) n (%)
same,Psychiatric disorders: Events,[1],4 n
same,Psychiatric disorders: Patients,[1],3 (20.0) n (%)
same,Pyrexia: Events,[1],5 n
same,Pyrexia: Patients,[1],4 (26.7) n (%)
same,Renal and urinary disorders: Events,[1],4 n
same,Renal and urinary disorders: Patients,[1],3 (20.0) n (%)
same,"Respiratory, thoracic, and mediastinal disorders: Events",[1],8 n
same,"Respiratory, thoracic, and mediastinal disorders: Patients",[1],3 (20.0) n (%)
same,Skin and subcutaneous tissue disorders: Events,[1],13 n
same,Skin and subcutaneous tissue disorders: Patients,[1],7 (46.7) n (%)
same,Somnolence: Events,[1],3 n
same,Somnolence: Patients,[1],3 (20.0) n (%)
same,Stomatitis: Events,[1],3 n
same,Stomatitis: Patients,[1],3 (20.0) n (%)
same,Upper respiratory tract inflammation: Events,[1],1 n
same,Upper respiratory tract inflammation: Patients,[1],1 (6.7) n (%)
same,Vascular disorders: Events,[1],4 n
same,Vascular disorders: Patients,[1],3 (20.0) n (%)
same,Vascular pain: Events,[1],3 n
same,Vascular pain: Patients,[1],2 (13.3) n (%)
same,Vomiting: Events,[1],1 n
same,Vomiting: Patients,[1],1 (6.7) n (%)
same,TESAEs considered to be related to teduglutide,SHP633-306 or SHP633-307,No TESAEs
same,Deaths during the study,"TED-C14-004, one patient, acute hepatic and renal failure 52 days after teduglutide discontinuation",only death
same,Abdominal distension: Events,"Total, 0.05 mg/kg/day",6 n
same,Abdominal distension: Patients,"Total, 0.05 mg/kg/day",6 (33.3) n (%)
same,Abdominal pain: Events,"Total, 0.05 mg/kg/day",6 n
same,Abdominal pain: Patients,"Total, 0.05 mg/kg/day",5 (27.8) n (%)
same,Anal abscess: Events,"Total, 0.05 mg/kg/day",3 n
same,Anal abscess: Patients,"Total, 0.05 mg/kg/day",3 (16.7) n (%)
same,Anemia: Events,"Total, 0.05 mg/kg/day",2 n
same,Anemia: Patients,"Total, 0.05 mg/kg/day",2 (11.1) n (%)
same,Any TEAE: Events,"Total, 0.05 mg/kg/day",320 n
same,Any TEAE: Patients,"Total, 0.05 mg/kg/day",18 (100.0) n (%)
same,Arthralgia: Events,"Total, 0.05 mg/kg/day",5 n
same,Arthralgia: Patients,"Total, 0.05 mg/kg/day",5 (27.8) n (%)
same,Back pain: Events,"Total, 0.05 mg/kg/day",2 n
same,Back pain: Patients,"Total, 0.05 mg/kg/day",2 (11.1) n (%)
same,Blood and lymphatic system disorders: Events,"Total, 0.05 mg/kg/day",4 n
same,Blood and lymphatic system disorders: Patients,"Total, 0.05 mg/kg/day",3 (16.7) n (%)
same,Catheter site infection: Events,"Total, 0.05 mg/kg/day",2 n
same,Catheter site infection: Patients,"Total, 0.05 mg/kg/day",2 (11.1) n (%)
same,Catheter site pain: Events,"Total, 0.05 mg/kg/day",5 n
same,Catheter site pain: Patients,"Total, 0.05 mg/kg/day",2 (11.1) n (%)
same,Dehydration: Events,"Total, 0.05 mg/kg/day",4 n
same,Dehydration: Patients,"Total, 0.05 mg/kg/day",2 (11.1) n (%)
same,Dermatitis contact: Events,"Total, 0.05 mg/kg/day",4 n
same,Dermatitis contact: Patients,"Total, 0.05 mg/kg/day",4 (22.2) n (%)
same,Device occlusion (central venous catheter for PS): Events,"Total, 0.05 mg/kg/day",6 n
same,Device occlusion (central venous catheter for PS): Patients,"Total, 0.05 mg/kg/day",3 (16.7) n (%)
same,Device-related infection (central venous catheter for PS): Events,"Total, 0.05 mg/kg/day",33 n
same,Device-related infection (central venous catheter for PS): Patients,"Total, 0.05 mg/kg/day",10 (55.6) n (%)
same,Diarrhea: Events,"Total, 0.05 mg/kg/day",5 n
same,Diarrhea: Patients,"Total, 0.05 mg/kg/day",4 (22.2) n (%)
same,Dry skin: Events,"Total, 0.05 mg/kg/day",2 n
same,Dry skin: Patients,"Total, 0.05 mg/kg/day",2 (11.1) n (%)
same,Enteritis: Events,"Total, 0.05 mg/kg/day",2 n
same,Enteritis: Patients,"Total, 0.05 mg/kg/day",2 (11.1) n (%)
same,Enterocolitis: Events,"Total, 0.05 mg/kg/day",4 n
same,Enterocolitis: Patients,"Total, 0.05 mg/kg/day",3 (16.7) n (%)
same,Eye disorder: Events,"Total, 0.05 mg/kg/day",7 n
same,Eye disorder: Patients,"Total, 0.05 mg/kg/day",3 (16.7) n (%)
same,Gastrointestinal disorders: Events,"Total, 0.05 mg/kg/day",60 n
same,Gastrointestinal disorders: Patients,"Total, 0.05 mg/kg/day",15 (83.3) n (%)
same,General disorders and administration site conditions: Events,"Total, 0.05 mg/kg/day",37 n
same,General disorders and administration site conditions: Patients,"Total, 0.05 mg/kg/day",10 (55.6) n (%)
same,Headache: Events,"Total, 0.05 mg/kg/day",14 n
same,Headache: Patients,"Total, 0.05 mg/kg/day",7 (38.9) n (%)
same,Hematuria: Events,"Total, 0.05 mg/kg/day",3 n
same,Hematuria: Patients,"Total, 0.05 mg/kg/day",3 (16.7) n (%)
same,Hemorrhage subcutaneous: Events,"Total, 0.05 mg/kg/day",3 n
same,Hemorrhage subcutaneous: Patients,"Total, 0.05 mg/kg/day",2 (11.1) n (%)
same,Hepatobiliary disorders: Events,"Total, 0.05 mg/kg/day",5 n
same,Hepatobiliary disorders: Patients,"Total, 0.05 mg/kg/day",4 (22.2) n (%)
same,Hypersensitivity: Events,"Total, 0.05 mg/kg/day",2 n
same,Hypersensitivity: Patients,"Total, 0.05 mg/kg/day",2 (11.1) n (%)
same,Hypozincemia: Events,"Total, 0.05 mg/kg/day",2 n
same,Hypozincemia: Patients,"Total, 0.05 mg/kg/day",2 (11.1) n (%)
